Results taken from patent publication US8119563B2, “N-substituted azacycles” (FMC Corporation, priority 2003, dated 2012).

Tested on: tobacco budworm (Heliothis virescens [Fabricius])
Test: surface-treated diet test, insecticidal activity against tobacco budworm
Type: in vivo
Conditions: 0.25 millimoles of candidate insecticide on the surface of the diet, second instar larvae, five-day exposure; for Percent Mortality: compared to total number of insects infested; for Percent Growth Inhibition: inhibition of insect weight relative to untreated controls
Method: Candidate insecticides were evaluated for activity against the tobacco budworm (Heliothis virescens [Fabricius]) in a surface-treated diet test.
In this test one mL of molten (65-70° C.) wheat germ-based artificial diet was pipetted into each well of a four by six (24 well) multi-well plate (ID# 430345-15.5 mm dia.×17.6 mm deep; Corning Costar Corp., One Alewife Center, Cambridge, Mass. 02140). The diet was allowed to cool to ambient temperature before treatment with candidate insecticide.
For a determination of insecticidal activity, solutions of the candidate insecticides were prepared for testing using a Packard 204DT Multiprobe® Robotic System (Packard Instrument Company, 800 Research Parkway, Meriden, Conn. 06450), in which the robot first diluted a standard 50 millimolar DMSO solution of candidate insecticide with a 1:1 water/acetone solution (V/V) in a ratio of 1:7 stock solution to water/acetone. The robot subsequently pipetted 40 microliters of the so-prepared solution onto the surface of the diet in each of three wells in the 24 multi-well plate. The process was repeated with solutions of seven other candidate insecticides. Once treated, the contents of the multi-well plate were allowed to dry, leaving 0.25 millimoles of candidate insecticide on the surface of the diet, or a concentration of 0.25 millimolar. Appropriate untreated controls containing only DMSO on the diet surface were also included in this test.
For evaluations of the insecticidal activity of a candidate insecticide at varying rates of application, the test was established as described above using sub-multiples of the standard 50 millimolar DMSO solution of candidate insecticide. For example, the standard 50 millimolar solution was diluted by the robot with DMSO to give 5, 0.5, 0.05, 0.005, 0.0005 millimolar, or more dilute solutions of the candidate insecticide. In these evaluations there were six replicates of each rate of application placed on the surface of the diet in the 24 multi-well plate, for a total of four rates of application of candidate insecticide in each plate.
In each well of the test plate was placed one second instar tobacco budworm larvea, each weighing approximately five milligrams. After the larvae were placed in each well, the plate was sealed with clear polyfilm adhesive tape. The tape over each well was perforated to ensure an adequate air supply. The plates were then held in a growth chamber at 25° C. and 60% relative humidity for five days (light 14 hours/day).
After the five-day exposure period insecticidal activity for each rate of application of candidate insecticide was assessed as percent inhibition of insect weight relative to the weight of insects from untreated controls, and percent mortality when compared to the total number of insects infested.
The test compounds of formula I are identified by numbers that correspond to those in Table 1.

`Cl.OC1(C(c2ccc(OC(F)(F)F)cc2)c2ccc(OC(F)(F)F)cc2)CCN(Cc2ccc(Oc3ccccn3)cc2)CC1` [Compound 522] was tested, and the “Percent Mortality” value was 100% and the “Percent Growth Inhibition” value was 100%.

In the case of `CCCOc1ccc(C[N+]2([O-])CCC(O)(C(O)(c3ccc(OC(F)(F)F)cc3)c3ccc(OC(F)(F)F)cc3)CC2)cc1` (centres unmarked) [Compound 123], the “Percent Mortality” value is reported as 100% and the “Percent Growth Inhibition” value is reported as 100%.

With `OC1(C(c2ccc(OC(F)(F)F)cc2)c2ccc(Cl)cc2Cl)CCN(Cc2ccc(Oc3ccccn3)cc2)CC1` (centres unmarked) [Compound 433] the “Percent Mortality” value was 100% and the “Percent Growth Inhibition” value was 100%.

For `CC(C)=CCCC(C)=CCON=Cc1ccc(C(c2ccc(OC(F)(F)F)cc2)C2(O)CCN(Cc3ccc(Oc4ccccn4)cc3)CC2)cc1` (racemic) [Compound 284], the “Percent Mortality” value was 17% and the “Percent Growth Inhibition” value was 100%.

For `[O-][N+]1(Cc2ccc(Oc3ccccn3)cc2)CCC(O)(C(c2ccc(OC(F)(F)F)cc2)c2ccc(C(F)(F)F)cc2)CC1` (centres unmarked) [Compound 343], the “Percent Mortality” value was 100% and the “Percent Growth Inhibition” value was 100%.

`OC1(C(c2ccc(C(F)(F)F)cc2)c2ccccc2Cl)CCN(Cc2ccc(Oc3ncccn3)cc2)CC1` (centres unmarked) [Compound 18] was tested, and the “Percent Mortality” value was 100% and the “Percent Growth Inhibition” value was 100%.

In the case of `[O-][N+]1(CCCCOc2ccc(Cl)cc2)CCC(O)(C(c2ccc(OC(F)(F)F)cc2)c2ccc(OC(F)(F)F)cc2)CC1` (centres unmarked) [Compound 480], the “Percent Mortality” value is reported as 100% and the “Percent Growth Inhibition” value is reported as 100%.

In the case of `CCOC(OCC)c1ccc(C[N+]2([O-])CCC(O)(C(c3ccc(OC(F)(F)F)cc3)c3ccc(OC(F)(F)F)cc3)CC2)cc1` (centres unmarked) [Compound 351], the “Percent Mortality” value is reported as 100% and the “Percent Growth Inhibition” value is reported as 100%.

With `OC1(C(c2ccc(C(F)(F)F)cc2)c2cccc(F)c2)CCN(Cc2ccc(Oc3ncccn3)cc2)CC1` (centres unmarked) [Compound 12] the “Percent Mortality” value was 0% and the “Percent Growth Inhibition” value was 100%.

In the case of `[O-][N+]1(Cc2ccc(Oc3ccccn3)cc2)CCC(O)(C(c2ccc(OC(F)(F)F)cc2)c2cc(Cl)cc(Cl)c2)CC1` (centres unmarked) [Compound 457], the “Percent Mortality” value is reported as 100% and the “Percent Growth Inhibition” value is reported as 100%.

For `Cc1ccc(Oc2ccc(CN3CCC(O)(C(c4ccc(OC(F)(F)F)cc4)c4ccc(OC(F)(F)F)cc4)CC3)cc2)nn1` [Compound 255], the “Percent Mortality” value was 100% and the “Percent Growth Inhibition” value was 100%.

For `OC1(C(c2ccc(C(F)(F)F)cc2)c2ccc(C(F)(F)F)cc2)CCN(Cc2ccc(Oc3ccccn3)cc2)CC1` [Compound 22], the “Percent Mortality” value was 100% and the “Percent Growth Inhibition” value was 100%.

For `Cc1ccnc(Oc2ccc(CN3CCC(O)(C(c4ccc(OC(F)(F)F)cc4)c4ccc(OC(F)(F)F)cc4)CC3)cc2)c1` [Compound 321], the “Percent Mortality” value was 100% and the “Percent Growth Inhibition” value was 100%.

In the case of `Cc1cc(Cl)ccc1C(c1ccc(OC(F)(F)F)cc1)C1(O)CC[N+]([O-])(Cc2ccc(Oc3ccccn3)cc2)CC1` (centres unmarked) [Compound 461], the “Percent Mortality” value is reported as 100% and the “Percent Growth Inhibition” value is reported as 100%.

`CCn1nnc(-c2ccc(CN3CCC(O)(C(c4ccc(Cl)cc4)c4ccc(Cl)cc4)CC3)cc2)n1` [Compound 23] was tested, and the “Percent Mortality” value was 100% and the “Percent Growth Inhibition” value was 100%.

`OC1(C(c2ccc(OC(F)(F)F)cc2)c2ccc(OC(F)(F)F)cc2)CCN(Cc2ccc(Oc3cccc(Cl)c3)cc2)CC1` [Compound 286] was tested, and the “Percent Mortality” value was 100% and the “Percent Growth Inhibition” value was 100%.

`O=C(NC1CCCC1)Oc1ccc(CN2CCC(O)(C(c3ccc(OC(F)(F)F)cc3)c3ccc(OC(F)(F)F)cc3)CC2)cc1` [Compound 320] was tested, and the “Percent Mortality” value was 100% and the “Percent Growth Inhibition” value was 100%.

For `[O-][N+]1(Cc2ccc(-c3ncccc3Cl)cc2)CCC(O)(C(c2ccc(OC(F)(F)F)cc2)c2ccc(OC(F)(F)F)cc2)CC1` (centres unmarked) [Compound 411], the “Percent Mortality” value was 100% and the “Percent Growth Inhibition” value was 100%.

With `CC(C)OC(=O)Nc1ccc(C[N+]2(Cc3ccc(NC(=O)OC(C)C)cc3)CCC(O)(C(O)(c3ccc(OC(F)(F)F)cc3)c3ccc(OC(F)(F)F)cc3)CC2)cc1.[Cl-]` [Compound 521] the “Percent Mortality” value was 50% and the “Percent Growth Inhibition” value was 100%.

With `CCON=Cc1ccc(C[N+]2(O)CCC(O)(C(c3ccc(OC(F)(F)F)cc3)c3ccc(OC(F)(F)F)cc3)CC2)cc1.O=S(=O)([O-])C(F)(F)C(F)(F)C(F)(F)C(F)(F)C(F)(F)C(F)(F)C(F)(F)C(F)(F)F` (centres unmarked) [Compound 495] the “Percent Mortality” value was 100% and the “Percent Growth Inhibition” value was 100%.

`OC1(C(c2ccc(OC(F)(F)F)cc2)c2ccc(OC(F)(F)F)cc2)CCN(CCc2ccc(Cl)cc2)CC1` [Compound 474] was tested, and the “Percent Mortality” value was 83% and the “Percent Growth Inhibition” value was 100%.

In the case of `Cc1cc(C(c2ccc(OC(F)(F)F)cc2)C2(O)CCN(Cc3ccc(Oc4ccccn4)cc3)CC2)ccc1Cl` (centres unmarked) [Compound 435], the “Percent Mortality” value is reported as 100% and the “Percent Growth Inhibition” value is reported as 100%.

In the case of `Cc1ccc(Oc2ccc(CN3CCC(O)(C(c4ccc(OC(F)(F)F)cc4)c4ccc(OC(F)(F)F)cc4)CC3)cc2)nc1` [Compound 272], the “Percent Mortality” value is reported as 100% and the “Percent Growth Inhibition” value is reported as 100%.

For `[O-][N+]1(Cc2ccc(Oc3ccccn3)cc2)CCC(O)(C(c2ccc(F)cc2)c2ccc(OC(F)(F)F)cc2)CC1` (centres unmarked) [Compound 346], the “Percent Mortality” value was 100% and the “Percent Growth Inhibition” value was 100%.

In the case of `OC1(C(c2ccc(Cl)c(F)c2)c2ccc(Cl)c(F)c2)CCN(Cc2ccc(Oc3ncccn3)cc2)CC1` [Compound 4], the “Percent Mortality” value is reported as 100% and the “Percent Growth Inhibition” value is reported as 100%.

With `CC(C)(C)c1ccc(C(c2ccc(OC(F)(F)F)cc2)C2(O)CCN(Cc3ccc(Oc4ccccn4)cc3)CC2)cc1` (centres unmarked) [Compound 257] the “Percent Mortality” value was 100% and the “Percent Growth Inhibition” value was 100%.

For `OC1(C(c2ccc(Cl)cc2)c2ccc(Cl)cc2)CCN(Cc2ccc(Oc3ccccn3)cc2)CC1` [Compound 267], the “Percent Mortality” value was 100% and the “Percent Growth Inhibition” value was 100%.

For `[O-][N+]1(Cc2ccc(C3OCCO3)cc2)CCC(O)(C(c2ccc(C(F)(F)F)cc2)c2ccc(C(F)(F)F)cc2)CC1` (centres unmarked) [Compound 342], the “Percent Mortality” value was 100% and the “Percent Growth Inhibition” value was 100%.

For `O=S(=O)([O-])C(F)(F)C(F)(F)C(F)(F)C(F)(F)C(F)(F)C(F)(F)C(F)(F)C(F)(F)C(F)(F)F.OC1(C(c2ccc(C(F)(F)F)cc2)c2ccc(C(F)(F)F)cc2)CC[N+](O)(Cc2ccc(Oc3ccc(Cl)nn3)cc2)CC1` (centres unmarked) [Compound 520], the “Percent Mortality” value was 100% and the “Percent Growth Inhibition” value was 100%.

For `CC1(C)C(C=C(Cl)C(F)(F)F)C1C(=O)[O-].OC1(C(c2ccc(C(F)(F)F)cc2)c2ccc(C(F)(F)F)cc2)CC[N+](O)(Cc2ccc(Oc3ccc(Cl)nn3)cc2)CC1` (mixture of isomers) [Compound 519], the “Percent Mortality” value was 100% and the “Percent Growth Inhibition” value was 100%.

With `[O-][N+]1(CCCOc2ccc(Cl)cc2)CCC(O)(C(c2ccc(OC(F)(F)F)cc2)c2ccc(OC(F)(F)F)cc2)CC1` (centres unmarked) [Compound 481] the “Percent Mortality” value was 100% and the “Percent Growth Inhibition” value was 100%.

For `OC1(C(c2ccc(C(F)(F)F)cc2)c2ccc(Cl)cc2Cl)CCN(Cc2ccc(Oc3ncccn3)cc2)CC1` (centres unmarked) [Compound 15], the “Percent Mortality” value was 100% and the “Percent Growth Inhibition” value was 100%.

With `OC1(C(c2ccc(OC(F)(F)F)cc2)c2ccc(OC(F)(F)F)cc2)CCN(Cc2ccc(C=NOCCF)cc2)CC1` [Compound 312] the “Percent Mortality” value was 100% and the “Percent Growth Inhibition” value was 100%.

In the case of `OC1(C(c2ccc(C(F)(F)F)cc2)c2ccc(C(F)(F)F)cc2)CCN(Cc2ccc(OCC3CC3)cc2)CC1` [Compound 299], the “Percent Mortality” value is reported as 100% and the “Percent Growth Inhibition” value is reported as 100%.
